In patent US20020025303A1, “COSMETIC AND/OR DERMATOLOGICAL COMPOSITION CONTAINING A DERIVATIVE OF METHYLATED SILANOL AND A DERIVATIVE OF HYDROLYSED PLANT PROTEIN” (priority 1997, published 2002):

System: normal human fibroblasts (NHDF 784)
Experiment: Synthesis of collagen by human fibroblast cultures (radiolabelled proline incorporation)
Format: cell-based
Details: 72 h incubation, 1/40 dilutions of stock preparations, vitamin C 20 μg/ml, FIG. 4
Protocol: The effect of a composition of the present invention (comprising two anti-glycosylation agents with magnesium ascorbyl phosphate) on the stimulation of the synthesis of collagen and the limitation of the formation of irreversible cross linkages between the collagen fibrils, were evaluated in vitro on human fibroblast cells. […] Glucose was tested in a final concentration of 0.1 percent, which is equivalent to doubling the quantity of 'cold' glucose of the medium. […] They contained free radioactivity and radioactivity incorporated in the soluble cellular and extracellular proteins. […] The proteins of the soluble fraction were then precipitated by 0.3 volume of 10 percent w/v trichloroacetic acid (TCA), and then washed twice with 3 percent TCA (removal of free radioactivity). […] Aliquots were taken to count the incorporated radioactivity in the proteins and a final precipitation was carried out with TCA to separate the material digested by collagenase (collagenic origin) from the collagenase-insensitive material. The incorporated radioactivity was counted by liquid scintillation after cumulation of the soluble/insoluble protein fractions, in an LKB 1211 Rackbeta counter.

## O=C1O[C@H]([C@@H](O)CO)C([O-])=C1OP(=O)([O-])[O-].O=C1O[C@H]([C@@H](O)CO)C([O-])=C1OP(=O)([O-])[O-].[Mg+2].[Mg+2].[Mg+2] [magnesium ascorbyl phosphate]
  synthesis of collagen (quantity of radiolabelled proline in the neosynthesized collagen): significantly increased

## O=C1O[C@H]([C@@H](O)CO)C(O)=C1O [vitamin C]
  synthesis of collagen (quantity of radiolabelled proline in the neosynthesized collagen): significantly increased
